In patent US20230330233A1, “COMPOSITIONS AND METHODS FOR DELIVERING PHARMACEUTICAL AGENTS” (priority 2018, published 2023):

Columns and labels:
[1] = Dissolution in PBS media containing methyl cellulose polymer, Example 2; type: physicochemical; conditions: PBS media with methyl cellulose polymer, Average (Standard Error of the Mean)
Text: (§1) This Example described further characterization of a variety of drugs in MOF-5. Methyl cellulose polymer was included in both SG and PBS) dissolution media to inhibit precipitation of drug molecules at high supersaturation and to serve as a proxy for what would be an extensive formulation process of this supersaturating drug delivery system. […] Immediate release of CUR molecules from CUR@MOF-5 via MOF hydrolytic decomposition leads to rapid dissolution which generates high supersaturation in the first 60 min (FIGS. 5a and b). […] This immediate drug release from drug@MOF-5 composite is in contrast with controlled drug release from an amorphous drug@MOF composite with a water stable framework ([…] al., Chem. Commun. 2015, 51, 13878).

[2] = Dissolution in SG media containing methyl cellulose polymer, Example 2; type: physicochemical; conditions: SG media with methyl cellulose polymer, Average (Standard Error of the Mean)
Text: as §1

[3] = Dissolution and supersaturation in phosphate buffer saline (PBS) media, UV-vis, Example 1; type: physicochemical; conditions: for AUC0-4 / Cmax: 37° C., Average (Standard Error of the Mean)
Experimental: (§2) To determine the dissolution and supersaturation behavior in SG and PBS media of all CUR, SUL, CUR@MOF-5 and SUL@MOF-5 composites and their physical mixture samples, UV-vis spectroscopy (which is applied to monitor the dissolution process) was used. Concentration of CUR and SUL at 37° C. was determined. FIGS. 4a-d illustrate the solubility of pure CUR, CUR@MOF-5 composite and physical mixture and pure SUL, SUL@MOF-5 composite and physical mixture in SG and PBS media respectively. […] Because the immediate release of CUR molecules (from CUR@mof-5 composite) led to rapid dissolution, which generates high supersaturation in the first 60 min. […] Subsequently, a crystallization process occurs accompanied by a decrease in CUR concentration in both media.

[4] = Dissolution and supersaturation in simulated gastric (SG) media, UV-vis, Example 1; type: physicochemical; conditions: 37° C., Average (Standard Error of the Mean)
Experimental: as §2

mouse model = conditions: oral, Ullmann's Encyclopedia; cited from earlier work

Structure (SMILES) | AUC0-4 [1] | Cmax [1] | AUC0-4 [2] | Cmax [2] | AUC0-4 [3] | Cmax [3] | AUC0-4 [4] | Cmax [4] | lethal dose, LD50 (mouse model) | dissolution behavior in PBS media [3]
Nc1nc(N)c2nc(-c3ccccc3)c(N)nc2n1 [TAT, triamterene] | 5.89(9) mg*h/mL | 26.89(8) μg/mL | – | – | – | – | – | – | – | –
COc1cc(/C=C/C(=O)CC(=O)/C=C/c2ccc(O)c(OC)c2)ccc1O [CUR, curcumin] | 0.15(2) mg*h/mL | 0.95(4) μg/mL | 0.39(6) mg*h/mL | 2.12(21) μg/mL | 0.22(3) mg*h/mL | 1.12(7) μg/mL | 0.41(6) mg*h/mL | 1.99(4) μg/mL | – | –
O=C(O)c1ccc(C(=O)O)cc1 [terephthalic acid] | – | – | – | – | – | – | – | – | over 1 g/kg | –
CC1=C(CC(=O)O)c2cc(F)ccc2/C1=C\c1ccc([S+](C)[O-])cc1 (stereo not drawn) [SUL, sulindac] | – | – | 1.38(2) mg*h/mL | 6.84(7) μg/mL | 15.82(21) mg*h/mL | 68.65(91) μg/mL | 1.32(2) mg*h/mL | 6.01(6) μg/mL | – | fully dissolved
